Experimental data from ChEMBL document CHEMBL5506069, “A Unique Hybridization Route to Access Hydrazylnaphthalimidols as Novel Structural Scaffolds of Multitargeting Broad-Spectrum Antifungal Candidates” (J Med Chem, 2024).
≈ marks a conversion by molar mass, not a printed value.

Assays:
Type in all cases: functional
Candida albicans [1] = assay: Antifungal activity against Candida albicans assessed as inhibition of fungal growth incubated for 24 hrs by CLSI based microbroth dilution method
Candida albicans [2] = assay: Antifungal activity against Candida albicans ATCC 90023 assessed as inhibition of fungal growth incubated for 24 hrs by CLSI based microbroth dilution method
Aspergillus fumigatus = assay: Antifungal activity against Aspergillus fumigatus assessed as inhibition of fungal growth incubated for 24 hrs by CLSI based microbroth dilution method
Candida tropicalis = assay: Antifungal activity against Candida tropicalis assessed as inhibition of fungal growth incubated for 24 hrs by CLSI based microbroth dilution method
Candida parapsilosis = assay: Antifungal activity against Candida parapsilosis ATCC 22019 assessed as inhibition of fungal growth incubated for 24 hrs by CLSI based microbroth dilution method; settings: Lodderomyces parapsilosis

Structure (SMILES) | MIC (Candida albicans [1]) [µM] | MIC (Candida albicans [2]) [µM] | MIC (Aspergillus fumigatus) [µM] | MIC (Candida tropicalis) [µM] | MIC (Candida parapsilosis) [µM]
CCCCc1nc(Cl)c(/C=N/Nc2ccc3c4c(cccc24)C(=O)N(CCO)C3=O)n1CC | 274 (≈ 128 µg/mL) | 137 (≈ 64.1 µg/mL) | 68 (≈ 31.8 µg/mL) | 34 (≈ 15.9 µg/mL) | 548 (≈ 256 µg/mL)
C#CCn1c(CCCC)nc(Cl)c1/C=N/Nc1ccc2c3c(cccc13)C(=O)N(CCO)C2=O | 67 (≈ 32 µg/mL) | 17 (≈ 8.13 µg/mL) | 8 (≈ 3.82 µg/mL) | 2 (≈ 0.956 µg/mL) | 67 (≈ 32 µg/mL)
CCCCCn1c(CCCC)nc(Cl)c1/C=N/Nc1ccc2c3c(cccc13)C(=O)N(CCO)C2=O | 251 (≈ 128 µg/mL) | 126 (≈ 64.3 µg/mL) | 63 (≈ 32.1 µg/mL) | 16 (≈ 8.16 µg/mL) | 251 (≈ 128 µg/mL)
O=C1c2cccc3c(N/N=C/c4ccncc4)ccc(c23)C(=O)N1CCO | 355 (≈ 128 µg/mL) | 711 (≈ 256 µg/mL) | 355 (≈ 128 µg/mL) | 355 (≈ 128 µg/mL) | 355 (≈ 128 µg/mL)
O=C1c2cccc3c(N/N=C/c4cccc(O)c4)ccc(c23)C(=O)N1CCO | 341 (≈ 128 µg/mL) | 341 (≈ 128 µg/mL) | 171 (≈ 64.2 µg/mL) | 682 (≈ 256 µg/mL) | 341 (≈ 128 µg/mL)
CCCCCCCN1C(=O)c2cccc3c(N/N=C(\C)Cn4c([N+](=O)[O-])cnc4C)ccc(c23)C1=O | 1040 (≈ 512 µg/mL) | 1040 (≈ 512 µg/mL) | 1040 (≈ 512 µg/mL) | 1040 (≈ 512 µg/mL) | 1040 (≈ 512 µg/mL)
CN1C(=O)c2cccc3c(N/N=C/c4ccc([N+](=O)[O-])o4)ccc(c23)C1=O | 87 (≈ 31.7 µg/mL) | 175 (≈ 63.8 µg/mL) | 87 (≈ 31.7 µg/mL) | 87 (≈ 31.7 µg/mL) | 350 (≈ 128 µg/mL)
Cc1ccc(/C=N/Nc2ccc3c4c(cccc24)C(=O)N(CCO)C3=O)o1 | 42 (≈ 15.3 µg/mL) | 84 (≈ 30.5 µg/mL) | 338 (≈ 123 µg/mL) | 84 (≈ 30.5 µg/mL) | 169 (≈ 61.4 µg/mL)
O=C1c2cccc3c(N/N=C/c4ncc[nH]4)ccc(c23)C(=O)N1CCO | 367 (≈ 128 µg/mL) | 183 (≈ 63.9 µg/mL) | 183 (≈ 63.9 µg/mL) | 92 (≈ 32.1 µg/mL) | 6 (≈ 2.1 µg/mL)
CCCCN1C(=O)c2cccc3c(N/N=C(\C)Cn4c([N+](=O)[O-])cnc4C)ccc(c23)C1=O | 1140 (≈ 512 µg/mL) | 1140 (≈ 512 µg/mL) | 1140 (≈ 512 µg/mL) | 1140 (≈ 512 µg/mL) | 1140 (≈ 512 µg/mL)
O=C1c2cccc3c(N/N=C/c4cccnc4)ccc(c23)C(=O)N1CCO | 711 (≈ 256 µg/mL) | 355 (≈ 128 µg/mL) | 355 (≈ 128 µg/mL) | 355 (≈ 128 µg/mL) | 89 (≈ 32.1 µg/mL)
O=C1c2cccc3c(N/N=C/c4ccc(CO)o4)ccc(c23)C(=O)N1CCO | 21 (≈ 7.97 µg/mL) | 5 (≈ 1.9 µg/mL) | 10 (≈ 3.79 µg/mL) | 5 (≈ 1.9 µg/mL) | 21 (≈ 7.97 µg/mL)
CCCN1C(=O)c2cccc3c(N/N=C(\C)Cn4c([N+](=O)[O-])cnc4C)ccc(c23)C1=O | 1180 (≈ 512 µg/mL) | 1180 (≈ 512 µg/mL) | 1180 (≈ 512 µg/mL) | 1180 (≈ 512 µg/mL) | 1180 (≈ 512 µg/mL)
C/C(Cn1c([N+](=O)[O-])cnc1C)=N\Nc1ccc2c3c(cccc13)C(=O)N(CCO)C2=O | 1170 (≈ 512 µg/mL) | 1170 (≈ 512 µg/mL) | 587 (≈ 256 µg/mL) | 1170 (≈ 512 µg/mL) | 1170 (≈ 512 µg/mL)
CCCCc1nc(Cl)c(/C=N/Nc2ccc3c4c(cccc24)C(=O)N(CCO)C3=O)n1Cc1ccccc1Cl | 57 (≈ 32.2 µg/mL) | 4 (≈ 2.26 µg/mL) | 227 (≈ 128 µg/mL) | 57 (≈ 32.2 µg/mL) | 57 (≈ 32.2 µg/mL)
O=C1c2cccc3c(N/N=C/c4ccc(O)c([N+](=O)[O-])c4)ccc(c23)C(=O)N1CCO | 5 (≈ 2.1 µg/mL) | 10 (≈ 4.2 µg/mL) | 2 (≈ 0.841 µg/mL) | 5 (≈ 2.1 µg/mL) | 5 (≈ 2.1 µg/mL)
CCCCc1nc(Cl)c(/C=N/Nc2ccc3c4c(cccc24)C(=O)N(CCO)C3=O)[nH]1 | 36 (≈ 15.8 µg/mL) | 18 (≈ 7.92 µg/mL) | 73 (≈ 32.1 µg/mL) | 73 (≈ 32.1 µg/mL) | 291 (≈ 128 µg/mL)
C[n+]1ccc(/C=N/Nc2ccc3c4c(cccc24)C(=O)N(CCO)C3=O)cc1 | 16 | 8 | 127 | 255 | 64
O=C1c2cccc3c(N/N=C/c4c[nH]cn4)ccc(c23)C(=O)N1CCO | 183 (≈ 63.9 µg/mL) | 92 (≈ 32.1 µg/mL) | 183 (≈ 63.9 µg/mL) | 46 (≈ 16.1 µg/mL) | 23 (≈ 8.04 µg/mL)
C[n+]1ccccc1/C=N/Nc1ccc2c3c(cccc13)C(=O)N(CCO)C2=O | 32 | 255 | 127 | 32 | 64
C#CCN1C(=O)c2cccc3c(N/N=C(\C)Cn4c([N+](=O)[O-])cnc4C)ccc(c23)C1=O | 1180 (≈ 510 µg/mL) | 1180 (≈ 510 µg/mL) | 296 (≈ 127 µg/mL) | 1180 (≈ 510 µg/mL) | 1180 (≈ 510 µg/mL)
O=C1c2cccc3c(N/N=C/c4cccs4)ccc(c23)C(=O)N1CCO | 175 (≈ 63.9 µg/mL) | 351 (≈ 128 µg/mL) | 175 (≈ 63.9 µg/mL) | 351 (≈ 128 µg/mL) | 175 (≈ 63.9 µg/mL)
CCCCc1nc(Cl)c(/C=N/Nc2ccc3c4c(cccc24)C(=O)N(CCO)C3=O)n1CC(=O)OCC | 30 (≈ 15.8 µg/mL) | 61 (≈ 32.1 µg/mL) | 61 (≈ 32.1 µg/mL) | 2 (≈ 1.05 µg/mL) | 244 (≈ 128 µg/mL)
CCCCc1nc(Cl)c(/C=N/Nc2ccc3c4c(cccc24)C(=O)N(CCO)C3=O)n1CCN1CCOCC1 | 58 (≈ 32.1 µg/mL) | 4 (≈ 2.21 µg/mL) | 29 (≈ 16 µg/mL) | 29 (≈ 16 µg/mL) | 116 (≈ 64.2 µg/mL)
